Patent US20140120060A1, “TREATMENT OF RHEUMATOID ARTHRITIS AND ASTHMA USING PI3 KINASE INHIBITORS” (INFINITY PHARMACEUTICALS, INC., priority 2012, published 2014)

System: developing adjuvant arthritis
Assay: Freund's complete adjuvant induced rat model of arthritis
Assay type: in vivo
Conditions: reference treatment, dose not stated
Source text: Freund's complete adjuvant induced arthritis in the rat is an experimental model of polyarthritis that has been widely used for nonclinical testing of numerous anti-arthritic agents that are either under nonclinical or clinical investigation, or are currently used as therapeutics in this disease.

With C[C@@H]1C[C@H]2[C@@H]3CCC4=CC(=O)C=C[C@]4(C)[C@@]3(F)[C@@H](O)C[C@]2(C)[C@@]1(O)C(=O)CO [dexamethasone, reference compound] the “inhibition of ankle diameter AUC (d7-14) increase” value was 71%, the “reduction of histopathologic bone resorption” value was 97% and the “reduction of histopathologic inflammation” value was 56%.
